Experimental data taken from patent US20260049088A1, “TRICYCLIC HETEROCYCLIC DERIVATIVES, COMPOSITIONS AND USES THEREOF” (Danatlas Pharmaceuticals Co., Ltd., priority 2023, published 2026).

target: T1, hPARG (Homo sapiens, UniProt Q86W56); assay: PARG enzymatic activity assay (HTRF); type: biochemical; conditions: C-terminal His6-tag hPARG 65 pM, biotinylated-NAD ribosylated PARP1 substrate 8 nM
T1 construct: made in house; host or cells: E. coli
Experimental: HTRF assay was used to measure the ability of compounds to inhibit the activity of […] in vitro. C-terminal His6—tag PARG expressed in E. coli was purified and stored at −80° C. in aliquots. Assay measurements were performed with 1×buffer comprising 50 mM Tris pH 7.4, 0.1 mg/mL BSA, 3 mM EDTA, 0.4 mM EGTA, 1 mM DTT, 50 mM KCl and 0.01% Tween 20. Compounds dissolved in DMSO were plated into a 384-well assay plate (PerkinElmer, Catalog #: 6008280) in duplicate using a dispenser (Labcyte, Echo 665), and tested on a 10-point 4-fold serial dilution. Add 5 μL Enzyme mix [hPARG (C-terminal His6—tag, 4.2 μM), 65 pM final] to the test wells. The plates were covered and left to incubate for 60 minutes at RT before the addition of 5 μL substrate mix [biotinylated-NAD ribosylated PARP1 (6.1 μM), 8 nM final] to initiate reaction. After incubating 10 minutes at RT, add 2.5 μL Streptavidin-Eu cryptate (Cisbio, Catalog #: 610SAKLA) and 2.5 μL Mab anti 6HIS-XL665 (Cisbio, Catalog #: 61HISXLA) to the plate, and incubate for 60 minutes at RT. Read on a multimode plate reader (PerkinElmer, Envision 2015) in time-resolved fluorescence (TRF) mode, with excitation at 337 nm and emission at both 620 nm and 665 nm. Average HTRF signal of high control (Wells with 1% DMSO) was calculated and as Vehicle Control (VC). Average HTRF signal of low control (no Enzyme) was calculated and as Positive control (PC).
IC50 values were determined by fitting the data to the standard 4 parameters with Hill Slope using GraphPad Prism software.

T1 sequence (Q86W56 whole entry): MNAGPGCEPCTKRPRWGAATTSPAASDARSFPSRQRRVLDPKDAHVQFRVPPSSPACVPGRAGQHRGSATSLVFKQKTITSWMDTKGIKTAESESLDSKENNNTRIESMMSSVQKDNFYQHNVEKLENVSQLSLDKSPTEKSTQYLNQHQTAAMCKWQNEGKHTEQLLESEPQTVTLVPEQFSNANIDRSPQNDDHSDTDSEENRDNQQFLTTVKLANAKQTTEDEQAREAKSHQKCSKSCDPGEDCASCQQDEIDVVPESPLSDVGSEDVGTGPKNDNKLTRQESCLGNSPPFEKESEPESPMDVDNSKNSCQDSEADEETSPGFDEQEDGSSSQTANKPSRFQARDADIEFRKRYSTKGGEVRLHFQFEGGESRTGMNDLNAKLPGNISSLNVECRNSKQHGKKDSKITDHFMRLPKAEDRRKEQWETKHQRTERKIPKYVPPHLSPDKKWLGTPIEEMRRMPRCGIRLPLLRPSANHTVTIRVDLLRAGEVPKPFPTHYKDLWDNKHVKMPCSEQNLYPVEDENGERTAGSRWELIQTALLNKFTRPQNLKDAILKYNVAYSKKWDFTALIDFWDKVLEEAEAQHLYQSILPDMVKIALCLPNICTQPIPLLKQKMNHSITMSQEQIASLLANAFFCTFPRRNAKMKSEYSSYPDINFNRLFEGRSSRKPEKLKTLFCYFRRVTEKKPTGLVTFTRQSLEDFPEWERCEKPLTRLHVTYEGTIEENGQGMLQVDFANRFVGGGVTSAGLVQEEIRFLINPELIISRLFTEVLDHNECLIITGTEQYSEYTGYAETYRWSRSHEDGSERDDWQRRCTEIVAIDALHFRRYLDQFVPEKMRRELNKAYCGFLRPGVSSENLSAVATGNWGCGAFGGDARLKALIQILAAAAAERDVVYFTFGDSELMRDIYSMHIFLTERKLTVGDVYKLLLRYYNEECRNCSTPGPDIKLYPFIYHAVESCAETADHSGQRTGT

SMILES | IC50
CCSc1ncnc2c1c1ccc(S(=O)(=O)NC3(C#N)CC3)cc1n2-c1nnc(C(F)F)s1 [Example 26, N-(1-Cyanocyclopropyl)-9-(5-(difluoromethyl)-1,3,4-thiadiazol-2-yl)-4-(ethylthio)-9H-pyrimido[4,5-b]indole-7-sulfonamide] | > 1000 nM
CN(CCN1CCOCC1)c1ncnc2c1c1ccc(S(=O)(=O)NC3(C#N)CC3)cc1n2-c1nnc(C(F)F)s1 [Example 13, N-(1-cyanocyclopropyl)-9-(5-(difluoromethyl)-1,3,4-thiadiazol-2-yl)-4-(methyl(2-morpholinoethyl)amino)-9H-pyrimido[4,5-b]indole-7-sulfonamide] | ≤ 100 nM
CN(CC1CCCOC1)c1ncnc2c1c1ccc(S(=O)(=O)NC3(C#N)CC3)cc1n2-c1nnc(C(F)F)s1 (stereo not shown) [Example 68, N-(1-Cyanocyclopropyl)-9-(5-(difluoromethyl)-1,3,4-thiadiazol-2-yl)-4-(methyl((tetrahydro-2H-pyran-3-yl)methyl)amino)-9H-pyrimido[4,5-b]indole-7-sulfonamide] | ≤ 100 nM
N#CC1(NS(=O)(=O)c2ccc3c4c(N5CCn6cnnc6C5)ncnc4n(-c4nnc(C(F)F)s4)c3c2)CC1 [Example 46, N-(1-Cyanocyclopropyl)-9-(5-(difluoromethyl)-1,3,4-thiadiazol-2-yl)-4-(5,6-dihydro-[1,2,4]triazolo[4,3-a]pyrazin-7(8H)-yl)-9H-pyrimido[4,5-b]indole-7-sulfonamide] | ≤ 100 nM
N#CC1(NS(=O)(=O)c2ccc3c4c(NCCN5CCOCC5)ncnc4n(-c4nnc(C(F)F)s4)c3c2)CC1 [Example 16, N-(1-Cyanocyclopropyl)-9-(5-(difluoromethyl)-1,3,4-thiadiazol-2-yl)-4-((2-morpholinoethyl)amino)-9H-pyrimido[4,5-b]indole-7-sulfonamide] | ≤ 100 nM
Cc1cnc2n1CCN(c1ncnc3c1c1ccc(S(=O)(=O)NC4(C#N)CC4)cc1n3-c1nnc(C(F)F)s1)C2 [Example 53, N-(1-Cyanocyclopropyl)-9-(5-(difluoromethyl)-1,3,4-thiadiazol-2-yl)-4-(3-methyl-5,6-dihydroimidazo[1,2-a]pyrazin-7(8H)-yl)-9H-pyrimido[4,5-b]indole-7-sulfonamide] | ≤ 100 nM
CN(CC1CCOC1)c1ncnc2c1c1ccc(S(=O)(=O)NC3(C#N)CC3)cc1n2-c1nnc(C(F)F)s1 (stereo not shown) [Example 23, N-(1-Cyanocyclopropyl)-9-(5-(difluoromethyl)-1,3,4-thiadiazol-2-yl)-4-(methyl((tetrahydrofuran-3-yl)methyl)amino)-9H-pyrimido[4,5-b]indole-7-sulfonamide] | ≤ 100 nM
CCN(CC)CCN(C)c1ncnc2c1c1ccc(S(=O)(=O)NC3(C#N)CC3)cc1n2-c1nnc(C(F)F)s1 [Example 15, N-(1-Cyanocyclopropyl)-4-((2-(diethylamino)ethyl)(methyl)amino)-9-(5-(difluoromethyl)-1,3,4-thiadiazol-2-yl)-9H-pyrimido[4,5-b]indole-7-sulfonamide] | ≤ 100 nM
CN1CCN(c2ncnc3c2c2ccc(S(=O)(=O)NC4(C#N)CC4)cc2n3-c2nnc(C(F)F)s2)CC12CC2 [Example 48, N-(1-Cyanocyclopropyl)-9-(5-(difluoromethyl)-1,3,4-thiadiazol-2-yl)-4-(4-methyl-4,7-diazaspiro[2.5]octan-7-yl)-9H-pyrimido[4,5-b]indole-7-sulfonamide] | ≤ 100 nM
CN(Cc1ccccn1)c1ncnc2c1c1ccc(S(=O)(=O)NC3(C#N)CC3)cc1n2-c1nnc(C(F)F)s1 [Example 22, N-(1-Cyanocyclopropyl)-9-(5-(difluoromethyl)-1,3,4-thiadiazol-2-yl)-4-(methyl(pyridin-2-ylmethyl)amino)-9H-pyrimido[4,5-b]indole-7-sulfonamide] | 100 to 1000 nM
CN(CCN1CCS(=O)(=O)CC1)c1ncnc2c1c1ccc(S(=O)(=O)NC3(C#N)CC3)cc1n2-c1nnc(C(F)F)s1 [Example 78, N-(1-Cyanocyclopropyl)-9-(5-(difluoromethyl)-1,3,4-thiadiazol-2-yl)-4-((2-(1,1-dioxidothiomorpholino)ethyl)(methyl)amino)-9H-pyrimido[4,5-b]indole-7-sulfonamide] | ≤ 100 nM

The remaining lines, values ahead:

IC50 | SMILES
100 to 1000 nM | N#CC1(NS(=O)(=O)c2ccc3c4c(N5C[C@H]6C[C@@H]5CC6(F)F)ncnc4n(-c4nnc(C(F)F)s4)c3c2)CC1 [Example 40, N-(1-Cyanocyclopropyl)-4-((1R,4R)-5,5-difluoro-2-azabicyclo [2.2.1]heptan-2-yl)-9-(5-(difluoromethyl)-1,3,4-thiadiazol-2-yl)-9H-pyrimido[4,5-b]indole-7-sulfonamide]
≤ 100 nM | C[C@@H]1CN(c2ncnc3c2c2ccc(S(=O)(=O)NC4(C#N)CC4)cc2n3-c2nnc(C(F)F)s2)C[C@H](C)N1C [Example 41, N-(1-Cyanocyclopropyl)-9-(5-(difluoromethyl)-1,3,4-thiadiazol-2-yl)-4-((3R,5S)-3,4,5-trimethylpiperazin-1-yl)-9H-pyrimido[4,5-b]indole-7-sulfonamide]
100 to 1000 nM | CN(C)C(=O)COc1ncnc2c1c1ccc(S(=O)(=O)NC3(C#N)CC3)cc1n2-c1nnc(C(F)F)s1 [Example 6, 2-((7-(N-(1-Cyanocyclopropyl)sulfamoyl)-9-(5-(difluoromethyl)-1,3,4-thiadiazol-2-yl)-9H-pyrimido[4,5-b]indol-4-yl)oxy)-N,N-dimethylacetamide]
≤ 100 nM | CN(CC1COCCN1C)c1ncnc2c1c1ccc(S(=O)(=O)NC3(C#N)CC3)cc1n2-c1nnc(C(F)F)s1 (stereo not shown) [Example 64, N-(1-Cyanocyclopropyl)-9-(5-(difluoromethyl)-1,3,4-thiadiazol-2-yl)-4-(methyl((4-methylmorpholin-3-yl)methyl)amino)-9H-pyrimido[4,5-b]indole-7-sulfonamide]
≤ 100 nM | N#CC1(NS(=O)(=O)c2ccc3c4c(N5CCn6ncnc6C5)ncnc4n(-c4nnc(C(F)F)s4)c3c2)CC1 [Example 49, N-(1-Cyanocyclopropyl)-9-(5-(difluoromethyl)-1,3,4-thiadiazol-2-yl)-4-(5,6-dihydro-[1,2,4]triazolo[1,5-a]pyrazin-7(8H)-yl)-9H-pyrimido[4,5-b]indole-7-sulfonamide]
≤ 100 nM | CN(C)[C@H]1CCCC[C@@H]1N(C)c1ncnc2c1c1ccc(S(=O)(=O)NC3(C#N)CC3)cc1n2-c1nnc(C(F)F)s1 [Example 74, N-(1-Cyanocyclopropyl)-9-(5-(difluoromethyl)-1,3,4-thiadiazol-2-yl)-4-(((1S,2S)-2-(dimethylamino)cyclohexyl)(methyl)amino)-9H-pyrimido[4,5-b]indole-7-sulfonamide]
≤ 100 nM | CN(CC1COCCO1)c1ncnc2c1c1ccc(S(=O)(=O)NC3(C#N)CC3)cc1n2-c1nnc(C(F)F)s1 (stereo not shown) [Example 69, 4-(((1,4-Dioxan-2-yl)methyl)(methyl)amino)-N-(1-cyanocyclopropyl)-9-(5-(difluoromethyl)-1,3,4-thiadiazol-2-yl)-9H-pyrimido[4,5-b]indole-7-sulfonamide]
≤ 100 nM | C[C@H]1CN(c2ncnc3c2c2ccc(S(=O)(=O)NC4(C#N)CC4)cc2n3-c2nnc(C(F)F)s2)C[C@H](C)N1 [Example 94, N-(1-Cyanocyclopropyl)-9-(5-(difluoromethyl)-1,3,4-thiadiazol-2-yl)-4-((3S,5S)-3,5-dimethylpiperazin-1-yl)-9H-pyrimido[4,5-b]indole-7-sulfonamide]
